This is an account of results in US20260250290A1 (BRISTOL-MYERS SQUIBB COMPANY, priority 2023, published 2026).

The assay concerns the target T1, full length SGK1 (Homo sapiens, UniProt O00141).
T1 construct: 125 μM full length SGK1 (Life Technologies Part #PR7358A); purchased Life Technologies PR7358A
T1 sequence (O00141 1-431): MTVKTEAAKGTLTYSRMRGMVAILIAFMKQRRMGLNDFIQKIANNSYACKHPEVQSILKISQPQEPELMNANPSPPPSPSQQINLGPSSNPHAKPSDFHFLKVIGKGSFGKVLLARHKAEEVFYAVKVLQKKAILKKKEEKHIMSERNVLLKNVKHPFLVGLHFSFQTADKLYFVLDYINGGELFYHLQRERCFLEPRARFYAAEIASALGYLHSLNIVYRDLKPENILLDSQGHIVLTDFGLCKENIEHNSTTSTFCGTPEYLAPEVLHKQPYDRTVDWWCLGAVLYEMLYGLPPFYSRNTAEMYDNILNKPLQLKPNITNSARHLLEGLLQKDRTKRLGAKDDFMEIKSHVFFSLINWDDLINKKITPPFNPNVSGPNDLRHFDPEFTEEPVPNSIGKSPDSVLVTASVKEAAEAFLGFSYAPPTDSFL
Put plainly: SGK1 inhibition Assay A (Caliper LabChip electrophoretic separation of fluorescent peptide substrate and phosphorylated product). In kind it is biochemical. As to conditions: Assay A; 20 μM ATP, 40 min incubation; read-out: SGK1 IC50.

Usually IC50 stands for the midpoint of a concentration-inhibition curve.

Each structure is given as a SMILES string. Counter-ions that a name gives are not always drawn.

In the case of `CN(C)CCOc1cc(Cl)sc1C(=O)N[C@@H]1CCCN(c2cc(C3=CCN(C(=O)CC(F)(F)F)C3)n3ncnc(N)c23)C1` [Example 176, (R)-N-(1-(4-amino-7-(1-(3,3,3-trifluoropropanoyl)-2,5-dihydro-1H-pyrrol-3-yl)pyrrolo[2,1-f][1,2,4]triazin-5-yl)piperidin-3-yl)-5-chloro-3-(2-(dimethylamino)ethoxy) thiophene-2-carboxamide, 2 TFA], the IC50 amounted to 4 nM.
The value for `CN(C)CCOc1cc(Cl)sc1C(=O)N[C@@H]1CCCN(c2cc(C3=CCN(C(=O)C4CC4)C3)n3ncnc(N)c23)C1` [Example 177, (R)-N-(1-(4-amino-7-(1-(cyclopropanecarbonyl)-2,5-dihydro-1H-pyrrol-3-yl)pyrrolo[2,1-f][1,2,4]triazin-5-yl)piperidin-3-yl)-5-chloro-3-(2-(dimethylamino)ethoxy) thiophene-2-carboxamide, 2 TFA] was 5 nM; that for `CN(C)CCOc1cc(Cl)sc1C(=O)N[C@@H]1CCCN(c2cc(C3=CCN(C(=O)C4CCC4)C3)n3ncnc(N)c23)C1` [Example 178, (R)-N-(1-(4-amino-7-(1-(cyclobutanecarbonyl)-2,5-dihydro-1H-pyrrol-3-yl)pyrrolo[2,1-f][1,2,4]triazin-5-yl)piperidin-3-yl)-5-chloro-3-(2-(dimethylamino)ethoxy) thiophene-2-carboxamide, 2 TFA] was 6 nM; that for `CN(C)CCOc1cc(Cl)sc1C(=O)N[C@@H]1CCCN(c2cc(C3=CCN(C(=O)C4CC(F)(F)C4)C3)n3ncnc(N)c23)C1` [Example 179, (R)-N-(1-(4-amino-7-(1-(3,3-difluorocyclobutane-1-carbonyl)-2,5-dihydro-1H-pyrrol-3-yl)pyrrolo[2,1-f][1,2,4]triazin-5-yl)piperidin-3-yl)-5-chloro-3-(2-(dimethylamino)ethoxy) thiophene-2-carboxamide, 2 TFA] was 8 nM.
The value for `CC(=O)N1CC=C(c2cc(N3CCC[C@@H](NC(=O)c4sc(Cl)cc4OCCN(C)C)C3)c3c(N)ncnn23)CC1` [Example 180, (R)—N-(1-(7-(1-acetyl-1,2,3,6-tetrahydropyridin-4-yl)-4-aminopyrrolo[2,1-f][1,2,4]triazin-5-yl)piperidin-3-yl)-5-chloro-3-(2-(dimethylamino)ethoxy)thiophene-2-carboxamide 2 TFA] was 47 nM; that for `CN(C)CCOc1cc(Cl)sc1C(=O)N[C@@H]1CCCN(c2cc(C3=CCN(C(=O)CC(F)(F)F)CC3)n3ncnc(N)c23)C1` [Example 181, (R)-N-(1-(4-amino-7-(1-(3,3,3-trifluoropropanoyl)-1,2,3,6-tetrahydropyridin-4-yl)pyrrolo[2,1-f][1,2,4]triazin-5-yl)piperidin-3-yl)-5-chloro-3-(2-(dimethylamino)ethoxy) thiophene-2-carboxamide, 2 TFA] was 17 nM.
On to `CN(C)CCOc1cc(Cl)sc1C(=O)N[C@@H]1CCCN(c2cc(C3=CCN(C(=O)C4CC4)CC3)n3ncnc(N)c23)C1` [Example 182, (R)-N-(1-(4-amino-7-(1-(cyclopropanecarbonyl)-1,2,3,6-tetrahydropyridin-4-yl)pyrrolo[2,1-f][1,2,4]triazin-5-yl)piperidin-3-yl)-5-chloro-3-(2-(dimethylamino)ethoxy) thiophene-2-carboxamide, 2 TFA], for which the IC50 stood at 35 nM.
The value for `CN(C)CCOc1cc(Cl)sc1C(=O)N[C@@H]1CCCN(c2cc(C3=CCN(C(=O)C4CCC4)CC3)n3ncnc(N)c23)C1` [Example 183, (R)-N-(1-(4-amino-7-(1-(cyclobutanecarbonyl)-1,2,3,6-tetrahydropyridin-4-yl)pyrrolo[2,1-f][1,2,4]triazin-5-yl)piperidin-3-yl)-5-chloro-3-(2-(dimethylamino)ethoxy) thiophene-2-carboxamide, 2 TFA] was 42 nM; that for `CN(C)CCOc1cc(Cl)sc1C(=O)N[C@@H]1CCCN(c2cc(C3=CCN(C(=O)C4CC(F)(F)C4)CC3)n3ncnc(N)c23)C1` [Example 184, (R)-N-(1-(4-amino-7-(1-(3,3-difluorocyclobutane-1-carbonyl)-1,2,3,6-tetrahydropyridin-4-yl)pyrrolo[2,1-f][1,2,4]triazin-5-yl)piperidin-3-yl)-5-chloro-3-(2-(dimethylamino)ethoxy) thiophene-2-carboxamide, 2 TFA] was 36 nM.
In the case of `COC(=O)N1CC=C(c2cc(N3CCC[C@@H](NC(=O)c4sc(Cl)cc4OCCN4CCOCC4)C3)c3c(N)ncnn23)C1` [Example 185, methyl (R)-3-(4-amino-5-(3-(5-chloro-3-(2-morpholinoethoxy)thiophene-2-carboxamido)piperidin-1-yl)pyrrolo[2,1-f][1,2,4]triazin-7-yl)-2,5-dihydro-1H-pyrrole-1-carboxylate, 2 TFA], the IC50 stood at 43 nM.
`CN(C)CCOc1cc(Cl)sc1C(=O)N[C@@H]1CCCN(c2cc(-c3ccn4nnnc4c3)n3ncnc(N)c23)C1` [Example 186, (R)—N-(1-(4-amino-7-(tetrazolo[1,5-a]pyridin-7-yl)pyrrolo[2,1-f][1,2,4]triazin-5-yl)piperidin-3-yl)-5-chloro-3-(2-(dimethylamino)ethoxy)thiophene-2-carboxamide]: the IC50 came to 3 nM.
The value for `CN(C)CCOc1cc(Cl)sc1C(=O)N[C@@H]1CCCN(c2cc(-c3ccc(-n4cnnn4)cc3)n3ncnc(N)c23)C1` [Example 187, (R)-N-(1-(7-(4-(1H-tetrazol-1-yl)phenyl)-4-aminopyrrolo[2,1-f][1,2,4]triazin-5-yl)piperidin-3-yl)-5-chloro-3-(2-(dimethylamino)ethoxy) thiophene-2-carboxamide, 2 TFA] was 6 nM; that for `CN(C)CCOc1cc(Cl)sc1C(=O)N[C@@H]1CCCN(c2cc(-c3ccc(-n4cnnn4)c(F)c3)n3ncnc(N)c23)C1` [Example 188] was 4 nM.
The value for `CN(C)CCOc1cc(Cl)sc1C(=O)N[C@@H]1CCCN(c2cc(-c3ccc(C(F)F)nc3)n3ncnc(N)c23)C1` [Example 189, (R)-N-(1-(4-amino-7-(6-(difluoromethyl)pyridin-3-yl)pyrrolo[2,1-f][1,2,4]triazin-5-yl)piperidin-3-yl)-5-chloro-3-(2-(dimethylamino)ethoxy) thiophene-2-carboxamide] was 2 nM; that for `CN(C)CCOc1cc(Cl)sc1C(=O)N[C@@H]1CCCN(c2cc(-c3ccc(-n4cncn4)nc3)n3ncnc(N)c23)C1` [Example 190, (R)-N-(1-(7-(6-(1H-1,2,4-triazol-1-yl)pyridin-3-yl)-4-aminopyrrolo[2,1-f][1,2,4]triazin-5-yl)piperidin-3-yl)-5-chloro-3-(2-(dimethylamino)ethoxy) thiopbene-2-carboxamide] was 19 nM.
As to `CN(C)CCOc1cc(Cl)sc1C(=O)N[C@@H]1CCCN(c2cc(-c3ccc(-n4cnc(C#N)n4)nc3)n3ncnc(N)c23)C1` [Example 191, (R)-N-(1-(4-amino-7-(6-(3-cyano-1H-1,2,4-triazol-1-yl)pyridin-3-yl)pyrrolo[2,1-f][1,2,4]triazin-5-yl)piperidin-3-yl)-5-chloro-3-(2-(dimethylamino)ethoxy) thiophene-2-carboxamide], the IC50 came to 6 nM.
